The values that follow are results of earlier work, collected in US20260232560A1, “SKIN HEALTH BENEFITTING COMPOSITIONS” (priority 2023, published 2026).

The conditions of data set [1]: poor solubility and permeability.
The conditions of data set [2]: background statement.

Regarding `O=c1oc2c(O)c(O)cc3c(=O)oc4c(O)c(O)cc1c4c23` [Ellagic acid], the BCS class entry in data set [1] is reported as “BCS Class IV”. With `CCCC\C=C/C=C/C=C\CCCCCCCC(=O)O` [Punicic acid], the “antioxidant power relative to grape seed extract” value in data set [2] was “approximately 10 times”.
